“Also recorded” adds a separate entry of the source.
Legend:
FRS2α [1] = conditions: unstimulated cells treated with the MEK inhibitor; cited from earlier work
FRS2α [2] = assay: FRS2 phosphorylation in mutant cells expressing constitutively activated Crouzon-like mutant Fgfr2c isoform; assay type: cell-based; conditions: results not shown
Method: (§1) We first tested the effect of PLX052 in vitro for blocking the activation of FGFR2. Cells were pretreated for 5 minutes with the compound before stimulation. […] We further tested the ability of PLX052 in blocking the FRS2 phosphorylation in mutant cells expressing constitutively activated Crouzon-like mutant Fgfr2c isoform.

[3] = tested on: wild type suture (calvaria); assay: Calvaria organ culture, wild type mice: suture development; assay type: cell-based, mouse; conditions: for normal development of the sutures in the wild type: cultured 21 days
Method: (§2) FIGS. 15A-15D show results of in vitro culture of calvaria with FGFR inhibitor PLX052. Calvaria harvested from the Crouzon mutant and wild type E18.5 day old embryos were cultured in DMEM medium containing 10% FCS supplemented with ascorbic acid at 100 μg/ml and 1 μM PLX052 in 24 well plates. Medium was changed on alternate days along with the inhibitor. Controls were cultured with the vehicle only (0.2% DMSO). Calvaria were cultured for 14 days. After the specified time, calvaria were fixed in 10% buffered formalin, dehydrated followed by infiltration and embedding in methylmethacrylate plastic. Blocks were cut perpendicular to the coronal suture, that passes through the frontal bone (anterior side) and the parietal bone (posterior side). […] sections were collected and stained with toludine blue (FIG. 15.2, left panels). Adjacent sections were stained for minerals of the bone matrix using Van Kossa followed by methyl green counter staining. (A) wild type, and (B), mutant calvaria cultured with the vehicle alone (0.2% DMSO). Note the open suture in the wild type (A) and the fused suture in the mutant (B) cultured calvaria. (C), wild type and (D), mutant cultured with 1 μM PLX052 (in 0.2% DMSO). The left panels [(i), (iii)] are toluidine blue staining and the right panels [(ii), (iv)] are Van Kossa with methyl green counter staining. Lower panels [(iii), (iv)] are the higher magnification of the sutures shown in the boxed region of the upper panels [(i), (ii)].
(§3) PLX052 prevents cranial suture fusion in vitro. Next, we tested the ability of the PLX052 to prevent craniosynostosis in calvaria organ culture from wt and Crouzon-like mutant mice (FIG. 15). […] The calavria organ culture experiments were repeated with two different concentrations of PLX052 (1 μM and 5 μM) and cultured for extended period of time (21 days) to assess the dose response for this inhibitor (see below). […] Higher concentrations of PLX052 (50 μM and above) have caused extensive cell death within 24 hours in cultured cells. […]

cultured cells = assay: Cell death in cultured cells; assay type: cell-based; conditions: within 24 hours
Method: PLX052 prevents cranial suture fusion in vitro. Next, we tested the ability of the PLX052 to prevent craniosynostosis in calvaria organ culture from wt and Crouzon-like mutant mice (FIG. 15). […] The calavria organ culture experiments were repeated with two different concentrations of PLX052 (1 μM and 5 μM) and cultured for extended period of time (21 days) to assess the dose response for this inhibitor (see below). […] Higher concentrations of PLX052 (50 μM and above) have caused extensive cell death within 24 hours in cultured cells. Therefore, it is feasible to use limited amount of inhibitor to attenuate the abnormal signaling from the mutant receptors without causing adverse effect on the normal signaling pathways.

FGFR2 = target: T1, FGFR2 (Mus musculus, UniProt P21803); assay: Blocking ligand-stimulated tyrosine autophosphorylation of FLAG-tagged FGFR2 in 3T3 cells (IP / anti-pTyr immunoblot); assay type: cell-based; conditions: 3T3 cells pretreated 5 minutes, then ligand stimulated 5 minutes at 37° C.
T1 construct: expressed in transfected cells; host or cells: 3T3 cells
T1 sequence (P21803 22-821): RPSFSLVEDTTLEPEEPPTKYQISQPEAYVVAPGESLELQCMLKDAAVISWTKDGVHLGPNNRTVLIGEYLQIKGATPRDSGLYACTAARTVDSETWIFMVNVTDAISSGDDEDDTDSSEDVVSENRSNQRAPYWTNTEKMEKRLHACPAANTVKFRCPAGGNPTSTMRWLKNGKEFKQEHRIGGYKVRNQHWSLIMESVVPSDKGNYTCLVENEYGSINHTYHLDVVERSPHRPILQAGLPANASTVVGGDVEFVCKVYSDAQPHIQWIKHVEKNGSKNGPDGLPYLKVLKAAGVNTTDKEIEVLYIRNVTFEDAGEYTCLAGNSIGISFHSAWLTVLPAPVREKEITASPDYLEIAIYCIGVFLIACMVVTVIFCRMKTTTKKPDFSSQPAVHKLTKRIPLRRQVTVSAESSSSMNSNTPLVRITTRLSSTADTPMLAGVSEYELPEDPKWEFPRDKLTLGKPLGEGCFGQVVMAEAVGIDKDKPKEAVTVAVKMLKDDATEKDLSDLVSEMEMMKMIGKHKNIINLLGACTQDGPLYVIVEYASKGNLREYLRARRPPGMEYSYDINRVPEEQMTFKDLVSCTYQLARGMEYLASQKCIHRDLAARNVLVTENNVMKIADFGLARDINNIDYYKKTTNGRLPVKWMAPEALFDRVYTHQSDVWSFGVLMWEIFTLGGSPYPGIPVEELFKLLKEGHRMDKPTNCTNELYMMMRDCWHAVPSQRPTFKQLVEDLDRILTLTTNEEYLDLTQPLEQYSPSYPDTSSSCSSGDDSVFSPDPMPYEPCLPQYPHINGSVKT
Method: FIGS. 14A-D show pharmacological intervention in FGFR activation. (C) Structure of [4-(3,5-difluorophenyl)-1H-pyrrolo[2,3-b]pyridin-3-yl](3-methoxyphenyl)methanone (PLX052). (D) 3T3-cells treated for 5 minutes with PLX052 were ligand stimulated for 5 minutes at 37° C. Cell lysates were subjected to immunoprecipitation with anti-FLAG tag antibodies (the expression vector contains a tag in the c-terminus of FGFR2) followed by immunoblotting with either anti-phosphotyrosine (pTyr) or anti-FLAG antibodies. (A & B) Crystals of the apo-FGFR1 minimal kinase domain were grown at 4° C. by vapor diffusion in hanging drops containing 2 uL of 12 mg/mL protein solution and 2 uL of reservoir solution: 16% PEG8K, 0.25 M (NH4)2SO4, 5% ethylene glycol, 10 mM DTT, and 0.1 M Bis Tris, pH 5.8. Native crystals were soaked overnight at 4° C. in mother liquor containing 2 mM PLX052 and 5% DMSO. Complexed crystal belongs to monoclinic space group C2 and has unit cell dimensions a=211.9 Å, b=49.7 Å, c=66.2 Å, and β=107.4°. One cryo-cooled crystal was used for data collection, and data was collected at beamline X26 at Brookhaven National Laboratory. Co-crystallization of the kinase with PLX052 was also performed and found the same structural result. […] The nucleotide binding loop is shown in blue, the hinge region in magenta, and the catalytic core in yellow. (A) The side chains that interact with PLX052. […]

MAP Kinase signaling = MAP Kinase signaling in mutant cells expressing constitutively activated Crouzon-like mutant Fgfr2c isoform; assay type: cell-based; conditions: results not shown
Method: as §1

[4] = tested on: coronal suture of Crouzon-like mutant mice calvaria; assay: Calvaria organ culture, Crouzon-like mutant mice: coronal suture fusion; assay type: cell-based, mouse; conditions: for premature fusion of coronal suture of mutant mice calvaria: cultured 21 days
Method: as §2, §3

[5] = 1 μM, E18.5 calvaria cultured 14 days

SMILES | tyrosine phosphorylation of FRS2α (FRS2α [1]) | phosphorylation of FRS2α (FRS2α [2]) | growth of the wild type suture [3, 5] | normal development of the sutures in the wild type ([3]; 1 μM) | normal development of the sutures in the wild type ([3]; 5 μM) | concentration causing extensive cell death (cultured cells) [µM] | concentration that inhibits FGFR activation to basal levels (tyrosine autophosphorylation of FGFR2) (FGFR2) [µM] | MAP Kinase signaling (MAP Kinase signaling) | premature fusion of coronal suture in mutant calvaria in vitro [4, 5] | premature fusion of coronal suture of mutant mice calvaria ([4]; 1 μM) | premature fusion of coronal suture of mutant mice calvaria ([4]; 5 μM)
COc1cccc(-c2cc(=O)c3ccccc3o2)c1N [PD 0980089] | leads to constitutive tyrosine phosphorylation of FRS2α |  |  |  |  |  |  |  |  |  | 
COc1cccc(C(=O)c2c[nH]c3nccc(-c4cc(F)cc(F)c4)c23)c1 [PLX052, [4-(3,5-difluorophenyl)-1H-pyrrolo[2,3-b]pyridin-3-yl](3-methoxyphenyl)methanone] |  | significant reduction in the phosphorylation of FRS2α | did not affect the growth of the wild type suture | without affecting the normal development of the sutures in the wild type | without affecting the normal development of the sutures in the wild type | ≥ 50 | 10 | attenuated MAP Kinase signaling | able to rescue the premature fusion of coronal suture; also recorded: open suture in the mutant cultured with PLX052 | able to prevent the premature fusion of coronal suture | able to prevent the premature fusion of coronal suture
